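Cultured in 96-well plates, cells were exposed to test compound for 48 hours across five concentrations. GI50 is the concentration that inhibits growth by half.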 The source made the active and inactive calls. Cut-off read from the data, not from the text of the source: active = GI50 up to about 1.1 µM and inactive = higher.
What was measured:
Assay in all cases: NCI tumour cell line growth inhibition, 48 h
786-0 = tested on: 786-0
A498 = tested on: A498
A549 = tested on: A549
ACHN = tested on: ACHN
BT-549 = tested on: BT-549
CAKI-1 = tested on: CAKI-1
CCRF-CEM = tested on: CCRF-CEM
COLO 205 = tested on: COLO 205
DLD-1 = tested on: DLD-1
DMS-273 = tested on: DMS-273
DU-145 = tested on: DU-145
EKVX = tested on: EKVX
HCC 2998 = tested on: HCC 2998
HCT-116 = tested on: HCT-116
HCT-15 = tested on: HCT-15
HL-60 = tested on: HL-60
HOP-18 = tested on: HOP-18
HOP-62 = tested on: HOP-62
HOP-92 = tested on: HOP-92
HT-29 = tested on: HT-29
Hs-578T = tested on: Hs-578T
IGROV-1 = tested on: IGROV-1
K562 = tested on: K562
KM-20L2 = tested on: KM-20L2
KM12 = tested on: KM12
LOX IMVI = tested on: LOX IMVI
LXFL 529 = tested on: LXFL 529
M14 = tested on: M14
MCF7 = tested on: MCF7
MDA-MB-231 = tested on: MDA-MB-231
MDA-MB-435 = tested on: MDA-MB-435
MDA-N = tested on: MDA-N
MOLT-4 = tested on: MOLT-4
Malme-3M = tested on: Malme-3M
NCI-H226 = tested on: NCI-H226
NCI-H23 = tested on: NCI-H23
NCI-H460 = tested on: NCI-H460
NCI-H522 = tested on: NCI-H522
NCI/ADR-RES = tested on: NCI/ADR-RES
OVCAR-3 = tested on: OVCAR-3
OVCAR-4 = tested on: OVCAR-4
OVCAR-5 = tested on: OVCAR-5
OVCAR-8 = tested on: OVCAR-8
PC-3 = tested on: PC-3
RPMI-8226 = tested on: RPMI-8226
RXF 393 = tested on: RXF 393
SF-268 = tested on: SF-268
SF-295 = tested on: SF-295
SF-539 = tested on: SF-539
SK-MEL-28 = tested on: SK-MEL-28
SK-MEL-2 = tested on: SK-MEL-2
SK-MEL-5 = tested on: SK-MEL-5
SK-OV-3 = tested on: SK-OV-3
SN12C = tested on: SN12C
SNB-19 = tested on: SNB-19
SNB-75 = tested on: SNB-75
SNB-78 = tested on: SNB-78
SR = tested on: SR
SW-620 = tested on: SW-620
T47D = tested on: T47D
TK-10 = tested on: TK-10
U-251 = tested on: U-251
UACC-257 = tested on: UACC-257
UACC-62 = tested on: UACC-62
UO-31 = tested on: UO-31
XF498 = tested on: XF498
M19-MEL = tested on: M19-MEL

COc1cccc2c1C(=O)c1c(O)c3c(c(O)c1C2=O)C[C@@](O)(C(=O)CO)CC3OC1CC(N)C(OC2CCCCO2)C(C)O1 (stereo partly drawn)
GI50 (786-0): 0.272 µM (active)
GI50 (A498): 0.309 µM (active)
GI50 (A549): 0.256 µM (active)
GI50 (ACHN): 0.24 µM (active)
GI50 (BT-549): 0.176 µM (active)
GI50 (CAKI-1): 0.916 µM (active)
GI50 (CCRF-CEM): 0.168 µM (active)
GI50 (COLO 205): 1.21 µM (inactive)
GI50 (DLD-1): 1.82 µM (inactive)
GI50 (DMS-273): 0.308 µM (active)
GI50 (DU-145): 0.0031 µM (active)
GI50 (EKVX): 1.39 µM (inactive)
GI50 (HCC 2998): 7.19 µM (inactive)
GI50 (HCT-116): 0.324 µM (active)
GI50 (HCT-15): 1.61 µM
GI50 (HL-60): 0.207 µM (active)
GI50 (HOP-18): 0.0977 µM (active)
GI50 (HOP-62): 0.144 µM (active)
GI50 (HOP-92): 0.0715 µM (active)
GI50 (HT-29): 0.853 µM (active)
GI50 (Hs-578T): 0.164 µM (active)
GI50 (IGROV-1): 0.929 µM (active)
GI50 (K562): 0.646 µM (active)
GI50 (KM-20L2): 0.561 µM (active)
GI50 (KM12): 0.0399 µM (active)
GI50 (LOX IMVI): 0.356 µM (active)
GI50 (LXFL 529): 0.668 µM (active)
GI50 (M14): 1.2 µM (inactive)
GI50 (MCF7): 0.001 µM (active)
GI50 (MDA-MB-231): 0.0802 µM (active)
GI50 (MDA-MB-435): 0.0807 µM (active)
GI50 (MDA-N): 0.124 µM (active)
GI50 (MOLT-4): 0.0315 µM (active)
GI50 (Malme-3M): 0.664 µM (active)
GI50 (NCI-H226): 0.419 µM (active)
GI50 (NCI-H23): 0.478 µM (active)
GI50 (NCI-H460): 0.0134 µM (active)
GI50 (NCI-H522): 0.541 µM (active)
GI50 (NCI/ADR-RES): 0.959 µM (active)
GI50 (OVCAR-3): 1.56 µM (inactive)
GI50 (OVCAR-4): 0.0366 µM (active)
GI50 (OVCAR-5): 1.71 µM (inactive)
GI50 (OVCAR-8): 0.35 µM (active)
GI50 (PC-3): 0.0461 µM (active)
GI50 (RPMI-8226): 0.33 µM (active)
GI50 (RXF 393): 1.48 µM (inactive)
GI50 (SF-268): 0.785 µM (active)
GI50 (SF-295): 0.23 µM (active)
GI50 (SF-539): 0.267 µM (active)
GI50 (SK-MEL-28): 1.5 µM (inactive)
GI50 (SK-MEL-2): 1.85 µM (inactive)
GI50 (SK-MEL-5): 0.299 µM (active)
GI50 (SK-OV-3): 0.807 µM (active)
GI50 (SN12C): 1.27 µM (inactive)
GI50 (SNB-19): 0.437 µM (active)
GI50 (SNB-75): 0.417 µM (active)
GI50 (SNB-78): 1.5 µM (inactive)
GI50 (SR): 0.0314 µM (active)
GI50 (SW-620): 0.265 µM (active)
GI50 (T47D): 0.00871 µM (active)
GI50 (TK-10): 1.37 µM (inactive)
GI50 (U-251): 0.402 µM (active)
GI50 (UACC-257): 1.17 µM (inactive)
GI50 (UACC-62): 0.918 µM (active)
GI50 (UO-31): 0.762 µM (active)
GI50 (XF498): 0.54 µM (active)

Cc1cc2c(C)n(Cc3ccccc3Cl)nc2c(C(=O)O)c1C
GI50 (786-0): > 100 µM (inactive)
GI50 (A549): > 100 µM (inactive)
GI50 (ACHN): > 100 µM (inactive)
GI50 (CCRF-CEM): > 100 µM (inactive)
GI50 (COLO 205): > 10 µM (inactive)
GI50 (DLD-1): > 100 µM (inactive)
GI50 (DMS-273): > 100 µM (inactive)
GI50 (EKVX): > 100 µM (inactive)
GI50 (HCC 2998): > 100 µM (inactive)
GI50 (HCT-116): > 100 µM (inactive)
GI50 (HCT-15): > 100 µM
GI50 (HL-60): > 100 µM (inactive)
GI50 (HOP-18): > 100 µM (inactive)
GI50 (HOP-62): > 100 µM (inactive)
GI50 (HOP-92): > 100 µM (inactive)
GI50 (HT-29): > 100 µM (inactive)
GI50 (IGROV-1): > 100 µM (inactive)
GI50 (KM-20L2): > 100 µM (inactive)
GI50 (LOX IMVI): > 100 µM (inactive)
GI50 (LXFL 529): > 100 µM (inactive)
GI50 (M19-MEL): > 100 µM (inactive)
GI50 (MOLT-4): > 100 µM (inactive)
GI50 (Malme-3M): > 100 µM (inactive)
GI50 (NCI-H226): > 100 µM (inactive)
GI50 (NCI-H23): > 100 µM (inactive)
GI50 (NCI-H460): > 100 µM (inactive)
GI50 (OVCAR-3): > 100 µM (inactive)
GI50 (OVCAR-5): > 100 µM (inactive)
GI50 (OVCAR-8): > 100 µM (inactive)
GI50 (RPMI-8226): > 100 µM (inactive)
GI50 (RXF 393): > 100 µM (inactive)
GI50 (SF-268): > 100 µM (inactive)
GI50 (SF-295): > 100 µM (inactive)
GI50 (SF-539): > 100 µM (inactive)
GI50 (SK-MEL-28): > 100 µM (inactive)
GI50 (SK-MEL-2): > 100 µM (inactive)
GI50 (SK-OV-3): > 100 µM (inactive)
GI50 (SN12C): > 100 µM (inactive)
GI50 (SNB-19): > 100 µM (inactive)
GI50 (SNB-75): > 100 µM (inactive)
GI50 (SNB-78): > 100 µM (inactive)
GI50 (SR): > 100 µM (inactive)
GI50 (SW-620): > 100 µM (inactive)
GI50 (TK-10): > 100 µM (inactive)
GI50 (U-251): > 100 µM (inactive)
GI50 (UACC-257): > 100 µM (inactive)
GI50 (UACC-62): > 100 µM (inactive)
GI50 (UO-31): > 100 µM (inactive)
GI50 (XF498): > 100 µM (inactive)

N#C/C(=C\c1ccncc1)c1csc2ccccc12
GI50 (A498): 21.3 µM (inactive)
GI50 (A549): 23.4 µM (inactive)
GI50 (CAKI-1): 27.4 µM (inactive)
GI50 (CCRF-CEM): 20.4 µM (inactive)
GI50 (COLO 205): 18.9 µM (inactive)
GI50 (DLD-1): 28.3 µM (inactive)
GI50 (DMS-273): 26.3 µM (inactive)
GI50 (EKVX): 23.8 µM (inactive)
GI50 (HCC 2998): 17.4 µM (inactive)
GI50 (HCT-116): 16.6 µM (inactive)
GI50 (HCT-15): 24 µM
GI50 (HL-60): 15.1 µM (inactive)
GI50 (HOP-18): 31.1 µM (inactive)
GI50 (HOP-62): 24.8 µM (inactive)
GI50 (HOP-92): 20.9 µM (inactive)
GI50 (HT-29): 18.6 µM (inactive)
GI50 (IGROV-1): 28 µM (inactive)
GI50 (K562): 20.2 µM (inactive)
GI50 (KM-20L2): 20 µM (inactive)
GI50 (KM12): 18.5 µM (inactive)
GI50 (LOX IMVI): 20.4 µM (inactive)
GI50 (M19-MEL): 31.8 µM (inactive)
GI50 (MCF7): 25 µM (inactive)
GI50 (MOLT-4): 15.5 µM (inactive)
GI50 (Malme-3M): 32.7 µM (inactive)
GI50 (NCI-H226): 26.4 µM (inactive)
GI50 (NCI-H23): 25.2 µM (inactive)
GI50 (NCI-H460): 24.9 µM (inactive)
GI50 (NCI-H522): 17.5 µM (inactive)
GI50 (NCI/ADR-RES): 22.1 µM (inactive)
GI50 (OVCAR-3): 21.3 µM (inactive)
GI50 (OVCAR-4): 26.2 µM (inactive)
GI50 (OVCAR-5): 42.3 µM (inactive)
GI50 (OVCAR-8): 28.5 µM (inactive)
GI50 (RPMI-8226): 18.6 µM (inactive)
GI50 (RXF 393): 27.7 µM (inactive)
GI50 (SF-268): 22.9 µM (inactive)
GI50 (SF-295): 32.4 µM (inactive)
GI50 (SF-539): 21.4 µM (inactive)
GI50 (SK-MEL-28): 34.1 µM (inactive)
GI50 (SK-MEL-2): 17.2 µM (inactive)
GI50 (SK-MEL-5): 16.8 µM (inactive)
GI50 (SK-OV-3): 34.8 µM (inactive)
GI50 (SN12C): 23.6 µM (inactive)
GI50 (SNB-19): 26 µM (inactive)
GI50 (SNB-75): 24.4 µM (inactive)
GI50 (SNB-78): 23.8 µM (inactive)
GI50 (SW-620): 26.5 µM (inactive)
GI50 (U-251): 23.5 µM (inactive)
GI50 (UACC-257): 23.7 µM (inactive)
GI50 (UACC-62): 22.1 µM (inactive)
GI50 (UO-31): 24.9 µM (inactive)
GI50 (XF498): 22.3 µM (inactive)

From ChEMBL document CHEMBL1201862, “PubChem BioAssay data set” (2004)
